According to publication PMC7551059, “Bioactive Bianthraquinones and Meroterpenoids from a Marine-Derived Stemphylium sp. Fungus” (Marine Drugs, 2020):
Where two headings read alike, the source gives them in different places.

System: lipopolysaccharide (LPS)-induced nitric oxide (NO) production in RAW 264.7 mouse macrophages
Test: LPS-induced NO (nitrite) production in RAW 264.7 cells, Griess reagent
Assay type: cell-based
Details: for IC50: Mus musculus
Description: A RAW 264.7 murine macrophage cell line was purchased from American Type Cell Culture (Rockville, MD, USA). Cells were cultured in DMEM with 10% fetal bovine serum and antibiotic−antimycotics (i.e., penicillin G sodium, 100 units/mL; streptomycin, 100 μg/mL; amphotericin B, 250 ng/mL) at 37 °C in a humidified incubator with 5% carbon dioxide. All reagents used for cell culture were purchased from Gibco® Invitrogen Corp. (Grand Island, NY, USA).
The concentration of nitrite in the cultured media was used as a measure of NO production. The assay was performed as previously described. RAW 264.7 cells were plated at a density of 5 × 10^5 per well in a 24-well culture plate and incubated in a 37 °C humidified incubator with 5% CO2 in air for 18 h. The incubated cells were pretreated with phenol-red-free medium containing various concentrations of tested compounds for 30 min, followed by 1 μg/mL of LPS treatment for 18 h more. Aliquots of the supernatant from each well (100 μL) were transferred to a 96-well plate, and nitrite concentration was measured using Griess reagent. After the Griess reaction, MTT solution (final concentration of 500 μg/mL) was added to each well and further incubated for 4 h at 37 °C. Each medium was discarded, and dimethyl sulfoxide was added to each well to dissolve generated formazan. The absorbance was measured at 570 nm, and percent survival was determined by comparison with LPS treated control group. All reagents used in the nitrite production measurement were purchased from Sigma-Aldrich (St. Louis, MO, USA).

[1] = RAW264.7, RAW 264.7 cells, compounds 30 min before LPS 1 μg/mL, 18 h, read-out: IC50, suppression of LPS-induced NO production

COc1c(-c2cc(O)c3c(c2OC)C(=O)c2cc(C)c(O)cc2C3=O)cc(O)c2c1C(=O)C1=C(C2=O)[C@H](O)[C@@H](O)[C@@](C)(O)[C@H]1O (relative stereo) [Compound 2, alterporriol Z2]
IC50 [1]: 16.1 ± 1.1 µM

COc1cc(O)c2c(c1-c1c(OC)cc(O)c3c1C(=O)c1cc(C)c(O)cc1C3=O)C(=O)C1=C(C[C@@H](O)[C@@](C)(O)[C@@H]1O)C2=O [Compound 4, alterporriol F]
IC50 [1]: 9.6 ± 1.6 µM

COc1cc(O)c2c(c1)C(=O)c1cc(C)c(O)c(-c3c(OC)cc(O)c4c3C(=O)C3=C(C4=O)C(OC)C(O)C(C)(O)C3O)c1C2=O (stereo not drawn) [Compound 3, alterporriol Z3]
IC50, suppression of LPS-induced NO production (RAW 264.7 cells, compounds 30 min before LPS 1 μg/mL, 18 h): inactive

COc1cc(O)c2c(c1)C(=O)c1cc(C)c(O)c(-c3c(OC)cc(O)c4c3C(=O)C3=C(C4=O)[C@H](O)[C@@H](O)[C@@](C)(O)[C@H]3O)c1C2=O [Compound 6, alterporriol N]
IC50 [1]: 10.7 ± 0.6 µM

COc1c(-c2cc(O)c3c(c2OC)C(=O)c2cc(C)c(O)cc2C3=O)cc(O)c2c1C(=O)C1=C(C2=O)C(O)C(O)C(C)(O)C1O (stereo not drawn) [Compound 1, alterporriol Z1]
IC50 [1]: 11.6 ± 0.7 µM

COc1cc2c(c(O)c1-c1c(OC)cc(O)c3c1C(=O)C1=C(C3=O)[C@H](O)[C@@H](O)[C@@](C)(O)[C@@H]1O)C(=O)c1cc(O)c(C)cc1C2=O [Compound 5, alterporriol G]
IC50 (RAW264.7, read-out: IC50, suppression of LPS-induced NO production): 8.4 ± 0.4 µM
